Experimental data reported in article PMC10046901, “Molecular Analysis of the Superior Efficacy of a Dual Epidermal Growth Factor Receptor (EGFR)-DNA-Targeting Combi-Molecule in Comparison with Its Putative Prodrugs 6-Mono-Alkylamino- and 6,6-Dialkylaminoquinazoline in a Human Osteosarcoma Xenograft Model” (Cells, 2023).

Tests used:
[1] = Plasma and tumor metabolism by LC-MS and LC-MS/MS; type: in vivo, NSG male mice; settings: 3 h after administration; for in vivo metabolism of administered drug (LC-MS): tumor and plasma; for in vivo metabolism of administered drug (LC-MS) / concentration of released ZR2002 in treated tumors relative to ZR2002-treated tumors: 80 mg/kg oral; for concentration of released ZR2002 in treated tumors relative to ZR2002-treated tumors: tumor, N = 4
Procedure: In order to study the drug pharmacokinetics, 1 last dose (the 11th dose) was administered 3 h prior to sacrifice and after a break of 5 days from the previous drug administration.
At the end of the study, the mice were sacrificed, and the plasma and tumors were collected. The plasma was stored at −80 °C, and the tumor tissues were transversely cut into 2 parts: 1 was immediately frozen in liquid nitrogen and stored at −80 °C for Western blots and LC-MS analysis; the other was fixed in 4% paraformaldehyde and used for histology.
Individual stock solutions of ZR2002 and Nitro-RB10 (IS) were prepared in DMSO at 10 mg/mL and, after, in MeOH at a concentration of 100 μg/mL. Intermediate dilutions were prepared using ACN:water (35:65, v:v). All stock and working solutions were stored at −20 °C and brought to room temperature before use.
The dynamic range for the calibration curve ranged from 0.4 to 150 ng/mL, including 0.4, 1, 5, 10, 50, 80, 100 and 150 ng/mL in plasma and tumor matrix. These standards were prepared by spiking an appropriate volume of a standard spiking solution into the blank extracted plasma or tumor and vortexing. A total of 3 levels of QC samples were run during the analysis, including a low QC of 1 ng/mL, a mid QC of 10 ng/mL and a high QC of 100 ng/mL. These QC samples were prepared by spiking an appropriate volume of the spiking solution into the matrix blank. An appropriate volume of the IS spiking solution was then spiked into the calibration standards and QC samples to generate a final IS concentration of 15 ng/mL in the matrix. All samples were vortexed gently, completing the sample preparation process.
An amount of 50 μL of each plasma sample was deproteinized with 200 µL of cold ACN. The samples were mixed for 10 s, shaken automatically for 10 min and centrifuged for 10 min at 15,000 rpm (21,130 rcf) at 4 °C. After centrifugation, the supernatants were loaded into Captiva-Enhanced Matrix Removal (EMR)-Lipid cartridges (1.0 mL; 40 mg; Agilent, Santa Clara, CA, USA) and settled for 5 min. The supernatants were eluted by applying a positive pressure (2 psi for 2 min) using a positive pressure manifold (PPM 96 processor, Agilent Techn.). The cartridges were washed with ACN:water (8:2, v:v) 100 μL, at 2–4 psi for 2 min, followed by a 1-min period of high pressure (6–9 psi) to drain the cartridges. The elutes were transferred to new tubes and dried under vacuum using a Centrivap sample concentrator (Centrivap Complete^TM, Labconco Corporation, Kansas City, MO, USA) at room temperature. The dried samples were stored at −20 °C before LC-MS analysis. On the day of analysis, the samples were reconstituted in 100 µL of MeOH, vortexed for 10 s, sonicated for 5 min (sonic bath, Symphony, VWR International, Radnor, PA, USA) and centrifuged for 5 min at 15,000 rpm. The supernatants were diluted 60 times in 35% ACN, and an appropriate volume of the IS spiking solution was then spiked into the samples to generate a final IS concentration of 15 ng/mL. At the end of the process, all samples were diluted 120 times. These final solutions were transferred to autosampler vials (350 µL, Thermo Fisher Scientific, Waltham, MA, USA), and 10 µL of each was injected into the LC-MS system.
A weighted piece of tumor was crushed in a mortar with liquid nitrogen. To the tumor powder, 150 μL of water was added before deproteinizing the mixture with 600 µL of cold ACN. The samples were mixed for 10s, sonicated with ice in a sonication bath for 30 min to 1 h (Sonicate bath, VWR, International, Radnor, PA, USA) and centrifuged for 10 min at 15,000 rpm (21,130 rcf) at 4 °C (Centrifuge 5424 R, Eppendorf). After centrifugation, the supernatants were loaded into Captiva-Enhanced Matrix Removal (EMR)-Lipid cartridges (1.0 mL; 40 mg; Agilent) and settled for 5 min. The supernatants were eluted by applying a positive pressure (2 psi for 2 min) using a positive pressure manifold (PPM 96 processor, Agilent Techn.). […]

[2] = test system: Saos-2 osteosarcoma xenograft; test: 18F-FDG PET/CT imaging of tumors; type: in vivo, NSG male mice; settings: day 22, 80 mg/kg oral; for total lesion glycolysis (TLG): FDG-PET
Procedure: All PET/CT experiments were performed using nanoScan PET/CT for small animals (Mediso Medical Imaging Systems, Budapest, Hungary). The radiotracer 2′-deoxy-2′-[^18F]fluoro-D-glucose (^18F-FDG) was inoculated via 1 bolus injection in the tail vein (5.3 MBq in 100 µL). All animals were starved from the night before the experiment. The mice were kept awake for 45 min before the scans and weighed, and glycemia was measured in blood drawn from the caudal artery. Afterward, each mouse was placed in the scanner, with the […] at the center of the field of view. Each PET/CT session consisted of a 30 min PET emission scan followed by a 10 min CT transmission scan. The PET/CT scans were conducted under anesthesia (isoflurane 2%; medical air (0.6 L/min)) delivered via a nose cone. Temperature and heart rate were monitored throughout the procedure using the Mediso system. Images were reconstructed using expectation maximization (EM) and ordered subset expectation maximization (OSEM), normalized, and corrected for scatter, dead time and decay. The CT volume-of-interest (VOI) was drawn manually on the CT and PET co-registered images. ^18F-FDG accumulation was quantified as the mean standardized uptake value (SUV) between 20 and 30 min post-injection in a 3D volume-of-interest (VOI), which was named the metabolic volume (MV), delineated semi-automatically with iso-contours at a 40% threshold of the maximal SUV [30] in the tumor on PET/CT fusion slices using the PMOD software package v3.6 (PMOD Technologies Ltd., Zürich, Switzerland). In addition, another tumor volume-based parameter, called total lesion glycolysis (TLG), was calculated according to the product between the MV and the mean SUV. Furthermore, at the end of the imaging sessions, the tumors were resected and processed for ex vivo analysis.

Structure (SMILES)	in vivo metabolism of administered drug (LC-MS) [1]	CT tumor volume vs vehicle [2]	metabolic volume (MV) vs vehicle, FDG-PET [2]	total lesion glycolysis (TLG) [2]	concentration of released ZR2002 in treated tumors relative to ZR2002-treated tumors [1]	concentrations of ZR2002 metabolite in treated tumors and plasma vs ZR2002-treated ([1]; tumors and plasma)
ClCCNc1ccc2ncnc(Nc3cccc(Br)c3)c2c1 [ZR2002]	partially metabolized into its deschloroethyl metabolite “RB10” (peak 1) and RB10-N-acetyl (peak 2)	significant reduction	significant reduction	reduction in TLG	–	–
CN(CCCl)c1ccc2ncnc(Nc3cccc(Br)c3)c2c1 [JS84]	partially intact and largely converted into RB10-Methyl (peak 7), RB10 (1) and RB10-N-Acetyl (2)	not statistically different	not statistically different	reduction in TLG	five times lower	significantly lower
ClCCN(CCCl)c1ccc2ncnc(Nc3cccc(Br)c3)c2c1 [JS61]	remained largely intact	–	–	–	five times lower	–
